Here are results for 12 compounds from ChEMBL document CHEMBL1201862, “PubChem BioAssay data set” (2004).

Several values for one entry are separate records, joined by “and”; a condition that tells them apart may be missing. Identical values can stand only once.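 Dose response: 5 concentrations. Exposure: 48 h. Format: 96-well plates. Endpoint: linear interpolation; highest concentration if not reached. Abbreviation: GI50, concentration required for 50% inhibition of growth.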 Activity calls are given as the source filed them. Cut-off read from the data, not from the text of the source: active = GI50 up to about 1.1 µM and inactive = higher.

Common to all, as to experiment: inhibition of tumour cell growth, NCI panel, 48 h
Assay [1] has as its system HOP-92.
In assay [2] the test system is 786-0.
The test system of assay [3] is SN12C.
Assay [4] deals with SF-295.
Assay [5] has as its system COLO 205.
Assay [6] deals with HOP-62.
In assay [7] the test system is MCF7.
The test system of assay [8] is Hs-578T.
Assay [9] deals with U-251.
Assay [10] concerns DU-145.
In assay [11] the test system is SK-MEL-28.
Assay [12] has as its system KM12.
For assay [13], the system named is NCI-H226.
Assay [14] relates to SK-MEL-2.
For assay [15], the system named is NCI-H522.
The test system of assay [16] is MDA-N.
The subject of assay [17] is RXF 393.
The test system of assay [18] is HCT-15.
The subject of assay [19] is DLD-1.
The subject of assay [20] is SNB-78.

`CC(O)c1cc2c(s1)C(=O)c1sccc1C2=O` (configuration not stated): the GI50 in assay [1] is 0.386 µM (active); in [2], 0.303 µM (active); in [3], 0.112 µM (active); in assay [4], 0.0792 µM (active); in [5], 0.574 µM (active); in assay [6], 0.163 µM (active). Besides, the GI50 in assay [7] is 0.152 µM (active); in assay [8], 0.0638 µM (active); in assay [9], 0.125 µM (active); in assay [10] it was 0.0202 µM (active); in assay [11], 0.047 µM (active); in assay [12] it was 0.234 µM (active). The GI50 was 0.207 µM (active) in assay [13]; 0.0415 µM (active) in assay [14]; 0.148 µM (active) in [15]; 0.0198 µM (active) in assay [16]; 0.172 µM (active) in assay [17]; 0.0454 µM in assay [18].

As for `NC(=O)C1CCCNC1` (configuration not stated), the GI50 in assay [1], in assay [2], in [3], in assay [4], in [5] and in assay [6] was > 100 µM (inactive) in each case. For the same compound, the GI50 in [7], in assay [8], in assay [9], in assay [10], in assay [11] and in [12] was > 100 µM (inactive) throughout. The GI50 in assay [13] is > 100 µM (inactive); in assay [14], > 100 µM (inactive); in assay [15], > 100 µM (inactive); in assay [16], > 100 µM (inactive); in assay [17], > 100 µM (inactive); in assay [18], over 100 µM.

Consider `Cc1cc(C)nc(NC(=O)COc2ccc(Cl)cc2)c1`, for which the GI50 in assay [1] was > 100 µM (inactive); in [2] it was > 100 µM (inactive); in assay [3], > 100 µM (inactive); in assay [4], 84.9 µM (inactive); in assay [5] it was > 100 µM (inactive); in assay [6], > 100 µM (inactive). Also, the GI50 was 85.7 µM (inactive) in assay [7]; > 100 µM (inactive) in [8]; > 100 µM (inactive) in assay [9]; > 100 µM (inactive) in assay [10]; > 100 µM (inactive) in assay [11]; > 100 µM (inactive) in assay [12]. For the same compound, the GI50 in assay [13] is > 100 µM (inactive); in [14] it was > 100 µM (inactive); in [15] it was 84.5 µM (inactive); in assay [16], > 100 µM (inactive); in assay [17] it was 71.8 µM (inactive); in [18], over 100 µM.

As for `CCN(CCCl)c1cc(CN(C)C)cc(NC(=O)C23CCC(C(=O)Nc4cc(CN(C)C)cc(N(CC)CCCl)c4)(CC2)CC3)c1`, the GI50 is 1.43 µM (inactive) in [1]; 0.073 µM (active) in assay [2]; 0.245 µM (active) in assay [3]; 1.59 µM (inactive) in assay [4]; 1.49 µM (inactive) in assay [5]; 0.372 µM (active) in assay [6]. In addition, the GI50 was 0.0255 µM (active) in assay [7]; 0.46 µM (active) in assay [8]; 0.764 µM (active) in [9]; 0.804 µM (active) in assay [10]; 1.75 µM (inactive) in [11]; 1.67 µM (inactive) in [12]. The GI50 was 1.4 µM (inactive) in assay [13]; 2.39 µM (inactive) in [14]; 0.202 µM (active) in assay [15]; 1.12 µM (inactive) in [16]; 1.37 µM (inactive) in [17]; 13.4 µM in assay [18].

As to `CC(=O)O[C@H]1CC[C@@]2(C)C(=CC[C@@H]3C2CC[C@]2(C)Nc4nc5ccccc5cc4CC32)C1` (some centres not stated), the GI50 in assay [19] is 3.72 µM (inactive); in [2], 3.28 µM (inactive); in [3] it was 7.1 µM (inactive); in assay [4] it was 3.78 µM (inactive); in assay [5], 7.66 µM (inactive); in [20], 6.01 µM (inactive). Besides, the GI50 in [6] is 13.3 µM (inactive); in assay [9], 2.67 µM (inactive); in assay [12], 3.88 µM (inactive); in assay [13], 3.05 µM (inactive); in [14] it was 17 µM (inactive); in assay [15], 11.4 µM (inactive). Also, the GI50 is 2.07 µM (inactive) in assay [17] and 2.51 µM in assay [18].

With `Cc1nc2c(n1CCN(C)C)C(=O)c1ccccc1C2=O`, the GI50 was 13.5 µM (inactive) in assay [19]; 28 µM (inactive) in assay [2]; 16.6 µM (inactive) in [3]; 15.7 µM (inactive) in assay [4]; 4.47 µM (inactive) in assay [5]; 24.7 µM (inactive) in [20]. In addition, the GI50 in [6] is 26.9 µM (inactive); in assay [9] it was 14.5 µM (inactive); in assay [11], 53.6 µM (inactive); in assay [12], 15.2 µM (inactive); in assay [13] it was 31.6 µM (inactive); in assay [14], 12.2 µM (inactive). Moreover, the GI50 is 5.38 µM (inactive) in assay [15], 19.4 µM (inactive) in assay [17] and 12.8 µM in assay [18].

As to `CC(=O)OC1C[C@@H](C)C2(C[C@H](O)c3ccoc3)C(=O)OC[C@]13C2CCC(O)C31CO1` (some centres not stated), the GI50 in assay [1], in assay [2], in [3], in assay [4], in assay [5] and in [6] was > 100 µM (inactive) in each case. Moreover, the GI50 in [7], in [8], in assay [9], in assay [10], in [11] and in assay [12] was > 100 µM (inactive) throughout. Further, the GI50 in assay [13] was > 100 µM (inactive); in assay [14], > 100 µM (inactive); in assay [15] it was > 100 µM (inactive); in [16], > 100 µM (inactive); in assay [17], > 100 µM (inactive); in [18], over 100 µM.

As for `COC(=O)CCC(NC(=S)N/N=C(\C)c1ccccn1)C(=O)OC` (configuration not stated), the GI50 in assay [1] is 41.7 µM (inactive); in assay [19], 43 µM (inactive); in assay [2] it was 65.8 µM (inactive); in assay [3], 89.1 µM (inactive); in assay [4], 59.2 µM (inactive); in assay [5], 30 µM (inactive). Besides, the GI50 was 57.3 µM (inactive) in [6]; 53.2 µM (inactive) in assay [9]; 66.7 µM (inactive) in assay [11]; 91.6 µM (inactive) in assay [12]; 60.7 µM (inactive) in assay [13]; > 100 µM (inactive) in [14]. For the same compound, the GI50 was 33.3 µM (inactive) in assay [15], 35 µM (inactive) in assay [17] and 40.9 µM in [18].

For the compound `O=C(O)Cc1ccc(Nc2nc3cc(C(F)(F)F)ccc3nc2C(=O)O)cc1`, the GI50 in assay [1], in assay [2], in assay [3], in assay [4], in [5] and in assay [6] was > 100 µM (inactive) each time. Moreover, the GI50 in assay [7], in assay [8], in assay [9], in assay [10], in [11] and in assay [12] was > 100 µM (inactive) throughout. The GI50 in [13] was > 100 µM (inactive); in assay [14], > 100 µM (inactive); in assay [15], > 100 µM (inactive); in assay [16], > 100 µM (inactive); in [17] it was > 100 µM (inactive); in assay [18], over 100 µM.

In the case of `CCCCC(=O)OCC(=O)[C@]1(O)Cc2c(O)c3c(c(O)c2[C@@H](OC2CC(NC(=O)C(F)(F)F)C(O)C(C)O2)C1)C(=O)c1c(OC)cccc1C3=O` (some centres not stated), the GI50 is 0.376 µM (active) in assay [1]; 0.538 µM (active) in assay [19]; 0.232 µM (active) in [2]; 0.29 µM (active) in [3]; 0.308 µM (active) in [4]; 1.11 µM (active) in assay [5]. The GI50 in [6] was 0.183 µM (active); in assay [8], 1.73 µM (inactive); in assay [9], 0.221 µM (active); in [10], 0.365 µM (active); in assay [11], 1.73 µM (inactive); in assay [12], 0.787 µM (active). In addition, the GI50 was 0.0401 µM (active) in assay [13]; 0.962 µM (active) in [14]; 0.736 µM (active) in [15]; 1.15 µM (inactive) in assay [16]; 0.82 µM (active) in assay [17]; 1.39 µM in assay [18].

Take `C/C(=C\c1ccccc1)C(O)S(=O)(=O)O` (configuration not stated): the GI50 in [19], in assay [2], in assay [3], in [4], in assay [5] and in assay [6] was > 100 µM (inactive) throughout. The GI50 in [9], in assay [11], in assay [12], in assay [13], in [14] and in [15] was > 100 µM (inactive) in each case. Also, the results for the GI50 in [17] and in assay [18] were > 100 µM (inactive) and over 100 µM, respectively.

Consider `COc1cccc2c1C(=O)c1c(O)c3c(c(O)c1C2=O)C[C@@](O)(C(=O)CO)C[C@@H]3OC1CC(N)C(O)C(C)O1` (some centres not stated), for which the GI50 in assay [2] was 102 nM (active) and 57.5 nM (active); in [3], 89.5 nM (active) and 170 nM (active); in [20] it was 0.457 µM (active); in assay [7], 0.0169 µM (active); in [9], 44.9 nM (active) and 85.9 nM (active); in [12], 254 nM (active) and 366 nM (active). Further, the GI50 was < 43.6 nM (active) and 58.1 nM (active) in assay [13]; 252 nM (active) and 203 nM (active) in assay [14].
